Columns and labels:
golden hamsters = test: Seed finding model of anxiety; type: in vivo, Syrian golden hamsters (Mesocricetus auratus)
Excerpt: Clavulanic acid (CLAV) is structurally similar to the beta-lactam antibiotics. A most robust and simple bioassay for screening beta-lactams for CNS activity is the golden hamster seed finding model of anxiety. Briefly, hamsters are deprived of food overnight. The following day they are exposed to the additional stress of being taken from their home cage and placed in a novel environment for a few minutes. This manipulation stimulates the release of the stress hormone cortisol (FIG. 37). During their absence from the home cage, sunflower seeds are hidden under the bedding in one of the corners. When returned to the home cage, hamsters routinely scramble along the walls for 1-2 min before settling down, locating and eating the seeds. However, animals treated with the benzodiazepine anxiolytic chlordiazepoxide find seeds in less than 10 sec.
Male, Syrian golden hamsters (Mesocricetus auratus) (120-130 g) obtained from Harlan Sprague-Dawley Laboratories (Indianapolis, Ind.) were housed individually in Plexiglas cages (24 cm×24 cm×20 cm), maintained on a reverse light:dark cycle (14L:10D; lights on at 19:00 hr) and provided food and water ad libitum. A range of concentrations of CLAV (saline vehicle, 0.1, 1.0, 10, 100 1,000 ng/kg) were tested in six groups of hamsters (4-8/group)(FIG. 25). All tests were conducted during the dark phase of the circadian cycle under dim red illumination. Prior to testing all animals were fasted for 20-24 hrs. Ninety min after intraperitoneal (IP) injection of drug, animals were taken from their home cage and placed into a holding cage for 2 min. During their absence, six sunflower seeds were buried under the bedding in one corner of their home cage. Animals were placed back into their home cage randomly facing any one of the empty corners and timed for their latency to find the seeds in a five min observation period. Latency times were analyzed with a one-way ANOVA followed by Scheffe's post hoc tests. Assumption of equal variances was tested (Hartley's F-max=2.1 p>0.05)
It was hypothesized that CLAV functioned as an anxiolytic in the seed finding assay by blocking NAALADase activity in the brain. If this notion were true then it would be predicted that drugs known to block NAALADase should also enhance seed finding. To this end, animals were treated with N-acetyl-beta-aspartyl-glutamic acid (beta-NAAG), a competitive inhibitor of NAALADase (Serval et al., 1992) and tested in the seed finding model of anxiety. The study was similar to that outlined in Section I with one notable exception. […] Beta-NAAG (FW 304) was given in a dose of 3 ng in a volume of 1 μl saline ICV. The average adult hamster brain weights ca. 1.2 g of which 22% is extracellular fluid. The estimated beta-NAAG concentration was 11 ng/ml or 36 nM.
Two groups of six animals each were fasted overnight as previously described and tested the following day. One group was treated with beta-NAAG and the other saline vehicle and one hr later timed for latency to find the hidden sunflower seeds. A Student t-test for unpaired data was used for statistical comparisons.

[1] = test system: hamsters and other test species; test: Animal tests: effective dose for neuroactivity; type: in vivo; conditions: for threshold effective dose (administered parenterally): parenteral
Description: Animal tests indicate a threshold effective dose of moxalactam (administered parenterally) to be about 50 μg/kg of body weight. Based on animal test data and on the known distribution of parenterally administered moxalactam between the brain and other body tissues, that the effective minimum neurogenic protease inhibiting, concentration of moxalactam in the brain is about 30 nM. […] For parenterally administered moxalactam the minimum effective dose in hamsters and other test species is about 50 micrograms per kg of body weight, more or less. The use of moxalactam in an oral dosage form, preferably modified or derivatized in the form of an active ester, is estimated to range from about 2.5 to about 50 mg per dose, much less than the dose of moxalactam necessary to provide therapeutically effective antibiotic concentration. The effective oral dose of clavulanate is expected to be about 0.1 to about 10 mgs per dose.

rats [2] = test: Motor activity in an open field (plus-maze animals); type: in vivo, rat
Description: However, this depression of motor activity disappears following repeated administration of CDP over several days. […] To control for any non-specific effects of Mox and CDP on motor activity following their direct injection into the brain, animals were tested in the open field 30 min prior to testing in the plus (FIG. 18).
Immediately after each of the plus-maze tests reported above in Section II, animals were tested for general motor activity in an “open field.” Animals were placed into a large clean Plexiglas cage (48×32×40 cm) devoid of bedding. This open field was delineated into equal quadrants by tape on the underside of the cage. Animals were scored for motor activity by counting the number of quadrants traversed in 1 min.

rats [3] = test: Morris water maze, cue navigation; type: in vivo, rat
Description: (§1) On the day following the last day (Day 4) of spatial navigation, animals were tested for cue navigation. In these tests, the platform was raised above water level. One hr before testing animals were treated with Mox or saline vehicle. The same animals that were treated with Mox during spatial navigation were treated with Mox for cue navigation. Animals were run through a series of two minute trials with 45 min between trials. At each trial, the platform was moved to a different quadrant. The cue navigation study was identical to the spatial navigation except the platform was visible and the testing was done over five consecutive trials done on a single day. Animals were scored for latency to find the platform, percent time spent in each quadrant, path distance and swim speed for all testing periods
as §1, with “CLAV” for “Mox”, “animals” for “animals that were”, “min” for “minute”

| SMILES | latency to find the sunflower seeds vs vehicle (golden hamsters; 1 ng/kg IP, 90 min) | dose with maximal efficacy in the seed finding test (golden hamsters; IP) [ng/kg body weight] | latency to find the sunflower seeds (golden hamsters; doses of 10 ng and above (up to 1,000 ng/kg) IP, 90 min) | effective i.p. dose ([1]; i.p.) | i.p. doses with psychotropic effects (antianxiety, antiaggression, cognition enhancement) ([1]; i.p.) | open field activity (quadrants traversed in 1 min) (rats [2]; CLAV 1.0 μg/kg IP, immediately after plus-maze) | distance traveled to find the platform (rats [3]; CLAV) | latency to find the platform (rats [3]; CLAV) | percentage of time spent in each quadrant (rats [3]; CLAV) | swim rate (rats [3]; CLAV) | change in seed finding time (golden hamsters; dose not given) | threshold effective dose (administered parenterally) ([1]; listed as Moxalactam) | threshold effective dose (administered parenterally) ([1]; listed as moxalactam) | general motor activity in the open field (rats [2]; 1 mM direct injection into the brain, 30 min prior to plus-maze) | path length (rats [3]; Mox) | percentage of time spent in each quadrant (rats [3]; Mox) | swim speed (rats [3]; Mox) | latency to find the platform (rats [3]; Mox, trials 1, 3 and 4) |
| --- | --- | --- | --- | --- | --- | --- | --- | --- | --- | --- | --- | --- | --- | --- | --- | --- | --- | --- |
| O=C(O)[C@H]1/C(=C/CO)O[C@@H]2CC(=O)N21 [CLAV, Clavulanic acid] | not significantly different | 10 | less than 8.0 sec | less than 1 microgram/kg | less than 1 μg/kg | no significant differences | not significantly different | no main effect for treatments | no significant difference between treatments | no significant main effect |  |  |  |  |  |  |  |  |
| CO[C@@]1(NC(=O)C(C(=O)O)c2ccc(O)cc2)C(=O)N2C(C(=O)O)=C(CSc3nnnn3C)CO[C@@H]21 (stereo partly drawn) [Mox, 7-β-[2-carboxy-2-(4-hydroxyphenyl)acetamido]-7α-methoxy-3-[[(1-methyl-1H-tetrazol-5-yl)thio]methyl]-1-oxa-1-dethia-3-cephem-4-carboxylic acid] |  |  |  |  |  |  |  |  |  |  | reduction in seed finding time from minutes to seconds | ≥ 50 μg/kg of body weight | about 50 μg/kg of body weight | no significant effect | much shorter path length | no significant difference between treatments | no significant difference | significantly shorter latencies |

From US7842683B2, “Neurotherapeutic compositions and method” (Revaax Pharmaceuticals, LLC, priority 1999, dated 2010)
